According to patent publication US11478467B2 (priority 2017, dated 2022):
One block for each compound: values may come before it.

Key:
5-HT2A receptors [1] = target: T1, 5-HT2A receptors (Homo sapiens (Human), UniProt P28223); experiment: 5-HT2A receptor antagonist radioligand binding ([3H]ketanserin)
Procedure: HEK-293 cells expressing human recombinant 5HT2A receptor were used in the antagonist radioligand binding studies. […] The inhibition constants (Ki) were calculated using the Cheng Prusoff equation. Both sarpogrelate enantiomers were potent inhibitors of [3H]ketanserin binding (Table 1). M1 enantiomers also potently bind to 5HT2A receptors with the Ki values that are approximately one order of magnitude higher than those of sarpogrelate enantiomers (Table 1). There are no meaningful differences between enantiomers in terms of 5-HT2A receptor binding for sarpogrelate or its main metabolite.
5HT2a ASSAY: Evaluation of the affinity of compounds for the human 5-HT2A receptor in transfected HEK-293 cells determined in a radioligand binding assay. Cell membrane homogenates (30-50 μg protein) were incubated 15 min at 37° C. with 0.5 nM [3H]ketanserin in the absence or presence of the test compound in a buffer containing 50 mM Tris-HCl (pH 7.4). Nonspecific binding was determined in the presence of 1 μM ketanserin. Following incubation, the samples were filtered rapidly under vacuum through glass fiber filters presoaked with 0.3% PEI and rinsed several times with ice-cold 50 mM Tris-HCl using a 96-sample cell harvester. The filters were dried then counted for radioactivity in a scintillation counter using a scintillation cocktail (WO2005013952A1, EP1500391A1[ab1], incorporated in its entirety by reference).

CYP2D6 [2] = target: T2, CYP2D6 (Homo sapiens (Human), UniProt P10635); experiment: Dextromethorphan O-demethylase activity in human liver microsomes; assay type: biochemical
T2 sequence (P10635 whole entry): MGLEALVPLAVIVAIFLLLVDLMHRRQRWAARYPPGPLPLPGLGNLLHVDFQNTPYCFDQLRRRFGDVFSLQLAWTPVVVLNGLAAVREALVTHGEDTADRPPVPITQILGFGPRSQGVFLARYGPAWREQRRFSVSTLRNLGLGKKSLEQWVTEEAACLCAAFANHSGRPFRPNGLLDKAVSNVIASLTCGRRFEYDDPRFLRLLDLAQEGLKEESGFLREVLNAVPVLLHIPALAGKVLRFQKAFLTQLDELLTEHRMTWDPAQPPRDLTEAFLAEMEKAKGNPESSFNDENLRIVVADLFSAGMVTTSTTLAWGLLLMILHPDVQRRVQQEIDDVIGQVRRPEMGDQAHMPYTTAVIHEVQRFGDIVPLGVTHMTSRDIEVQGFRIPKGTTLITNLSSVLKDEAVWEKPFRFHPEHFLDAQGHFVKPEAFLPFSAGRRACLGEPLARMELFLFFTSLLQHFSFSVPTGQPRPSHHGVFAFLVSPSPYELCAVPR
Procedure: Dextromethorphan O-demethylase activity was determined in human liver microsomes. […] The incubation mixtures contained pooled human liver microsomes (final concentrations: 0.25 mg/ml), dextromethorphan, and a NADPH-generating system (1.3 mM NADP+, 3.3 mM glucose 6-phosphate, 3.3 mM MgCl2, and 0.4 U/ml glucose-6-phosphate dehydrogenase). […] All incubations were performed in triplicate, and mean values were used for analysis. […] Both sarpogrelate enantiomers inhibited CYP2D6-mediated dextromethorphan O-demethylation (Table 4).

[3] = test system: hyperactivity in rats after olfactory bulbectomy; experiment: Motor hyperactivity induced by olfactory bulbectomy in rats; assay type: in vivo, rat
Procedure: In a dedicated set of studies, adult male Sprague-Dawley rats (Charles River, Germany) were subjected to bilateral olfactory bulbectomy performed under ketamine/xylasine anesthesia. The animals were allowed to recover for 14 days following surgery while being handled daily to eliminate any aggressiveness that would otherwise arise. Sham-operated animals were treated in the same way but the olfactory bulbs were left intact. Drugs administration and locomotor activity testing were performed 4 times for each rat with 72 hours break between consecutive test sessions. Prior to each test session, animals were first treated with dextromethorphan (0, 15, 30 or 60 mg/kg. per os) followed 15 min later by sarpogrelate (1, 3 and 10 mg/kg, intraperitoneal) and another 15 min later were placed into Opto-Varimex cages for locomotor activity recording over 30 min. Hyperactivity in rats after olfactory bulbectomy is observed mostly during the early portion of the test sessions. […] Post hoc pairwise comparisons (Sidak's multiple comparisons test) confirmed that significant differences between bulbectomized and sham-operated were observed only in rats that were pretreated prior to the test with vehicle instead of sarpogrelate.

[4] = Pharmacokinetic study of sarpogrelate hydrochloride i.v. in rats; assay type: in vivo, rat; conditions: rat, in vivo; 2 mg/kg intravenous bolus, male Wistar rats, plasma; read-out: Apparent terminal elimination half-life (converted)
Procedure: Pharmacokinetic study was performed in male Wistar rats equipped with the jugular vein cannulas. Sarpogrelate hydrochloride was formulated in Pharmasolv: PBS buffer (5:95) mixture and administered at the dose of 2 mg/kg intravenously. Blood samples were collected from the jugular vein using heparin as anticoagulant at the scheduled time-points: 5 min, 15 min, 30 min, 1 h, 1.5 h, 2 h, 4 h, and 6 h. An LC-MS/MS bioanalytical method was used for the simultaneous quantification of sarpogrelate and M1 in plasma samples. […] Formation of M1 metabolite of sarpogrelate was rapid as the highest M1 concentrations were measured at the first sampling time points.

[5] = test system: PCP-induced hyperactivity; experiment: Phencyclidine-induced hyperactivity in rats (sarpogrelate and dextromethorphan); assay type: in vivo, rat
[6] = Blood glucose levels and oral glucose tolerance in rats; assay type: in vivo, rat; conditions: dextromethorphan administered in combination with sarpogrelate
Procedure: Test substances were administered to male Wistar (Han) rats (180-280 g at the beginning of the experiments; Janvier Labs) housed in groups under free access to food and water. After overnight food deprivation, the tip of the tail was cut, each rat was weighed, housed individually and left without stress in a quiet room. Approximately 1 hour later, baseline blood glucose was measured from a drop of blood collected from the tail tip, using a commercially available glucose-meter (OneTouch®, Lifescan) and then rats received intraperitoneal injection of sarpogrelate and/or dextromethorphan and 30 min later blood glucose was measured again and rats immediately challenged with glucose at 2 g/kg by oral gavage. Then, blood glucose was measured at 6 time-points until 180 minutes post-glucose challenge.

DOI-induced head shakes = DOI-induced head shakes in rats; assay type: in vivo, rat; conditions: 0.3, 1 and 3 mg/kg 30 min prior to DOI 3 mg/kg; Sprague-Dawley rats
5-HT2A receptors [7] = target: T1, 5-HT2A receptors; conditions: compared with ritanserin; cited from earlier work
2D6 = 2D6 (Homo sapiens (Human), UniProt P10635); conditions: in vivo; cited from earlier work
Sequence of 2D6 (P10635 whole entry): as above

CYP2D6 [8] = target: T2, CYP2D6; conditions: cited from earlier work
CYP2D6 [9] = target: T2, CYP2D6; conditions: microsomes
Procedure: Dextromethorphan O-demethylase activity is determined in human liver microsomes. […] The incubation mixtures contain pooled human liver microsomes, dextromethorphan, and a NADPH-generating system. After incubation and centrifugation, the supernatant is diluted up to 100-fold with acetonitrile and then injected into the LC-MS/MS system. All incubations are performed in triplicate, and mean values are used for analysis. The IC50 values (concentration causing a half-maximal inhibition of control specific binding) and Hill coefficients (nH) are determined using methods such as non-linear regression analysis of the competition curves generated with mean replicate values using Hill equation curve fitting.

[10] = rat, in vivo, cited from earlier work
[11] = test system: immobility induced by tail suspension; experiment: Tail suspension test in mice; assay type: in vivo, mouse; conditions: ritanserin with effective dose of memantine 10 mg/kg
Procedure: Tail suspension is one of the classical tests used to study antidepressant drugs and was also applied to evaluate antidepressant-like effects of NMDA receptor channel blockers (Kos T et al., Effect of 5-HT3 receptor antagonist MDL 72222 on behaviors induced by ketamine in rats and mice. European Neuropsychopharmacology (2006) 16:297-310). Mice were transferred from the housing room to the testing area in their home cages and allowed to adapt to the new environment for at least 1 h before drug treatment. Immobility was induced by tail suspension whereby mice were attached individually on a paper adhesive tape, 65 cm above the table top. The tape was placed approximately 1 cm from the tip of the tail. Animals were suspended for 6 min and the duration of immobility was recorded. Mice were considered immobile only when they were completely motionless. […]

T1 sequence (P28223 whole entry): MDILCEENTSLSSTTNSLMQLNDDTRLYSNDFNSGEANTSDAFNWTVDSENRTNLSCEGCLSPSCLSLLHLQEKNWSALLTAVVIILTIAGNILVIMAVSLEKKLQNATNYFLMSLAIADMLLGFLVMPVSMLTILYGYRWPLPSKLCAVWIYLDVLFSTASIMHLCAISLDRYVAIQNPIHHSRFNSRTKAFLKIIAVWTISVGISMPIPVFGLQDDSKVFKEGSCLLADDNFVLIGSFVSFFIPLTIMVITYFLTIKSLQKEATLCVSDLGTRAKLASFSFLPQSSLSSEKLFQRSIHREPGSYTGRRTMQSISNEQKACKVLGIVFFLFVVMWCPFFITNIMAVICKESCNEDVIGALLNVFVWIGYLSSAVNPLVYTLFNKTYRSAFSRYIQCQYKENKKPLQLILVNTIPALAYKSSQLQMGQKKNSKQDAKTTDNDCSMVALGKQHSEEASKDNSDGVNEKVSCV

Structure (SMILES): COc1cccc(CCc2ccccc2OCC(CN(C)C)OC(=O)CCC(=O)O)c1 (racemic) [Compound 50, 4-((1-(dimethylamino)-3-(2-(3-methoxyphenethyl)phenoxy)propan-2-yl)oxy)-4-oxobutanoic acid]
Ki (5-HT2A receptors [1]; Ki calculated using the Cheng Prusoff equation): 5.01 nM
IC50 (5-HT2A receptors [1]; inhibition of [3H]ketanserin binding, HEK-293 cells expressing human recombinant 5HT2A receptor): 9.6 nM
IC50 (CYP2D6 [2]): 1200 nM
activity of sham-operated rats ([3]; doses with anti-hyperactivity effects): do not affect activity of sham-operated rats
time in ambulations of bulbectomized rats ([3]; sarpogrelate 3 or 10 mg/kg i.p., first 15 min of the test): spent less time in ambulations
half-life [4]: 1.21 ± 0.159 h
ANOVA interaction between dose of sarpogrelate and dose of dextromethorphan ([5]; PCP 5 mg/kg s.c., 60-120 min, listed as sarpogrelate racemate): significant interaction
activity in PCP-treated rats ([5]; given in the absence of dextromethorphan): neither sarpogrelate racemate nor sarpogrelate enantiomers reduced activity
motor hyperactivity in PCP-treated rats ([5]; in the presence of dextromethorphan, racemate 3 mg/kg, (−) sarpogrelate 1 or 3 mg/kg i.p., PCP 5 mg/kg s.c., 60-120 min): inhibited motor hyperactivity in PCP-treated rats
effect of dextromethorphan on blood glucose level [6]: reversed
frequency of DOI-induced head shakes (DOI-induced head shakes): reduced
affinity for 5-HT2A receptors (5-HT2A receptors [7]): the same affinity as ritanserin
classification as 2D6 inhibitor (2D6): weak 2D6 inhibitor
increase in the substrate AUC (2D6): less than 2 fold
inhibition type (Dixon plots) (CYP2D6 [8]): fit well to all competitive inhibition types

CYP2D6-mediated dextromethorphan O-demethylation (CYP2D6 [9]): observed to inhibit
Structure (SMILES): CN(C)CCO[C@]1(c2ccccc2)C[C@H]2CC[C@]1(C)C2(C)C [Compound 829, N,N-dimethyl-2-[[(1R,3S,4R)-4,7,7-trimethyl-3-phenyl-3-bicyclo[2.2.1]heptanyl]oxy]ethanamine]
t(max) ([10]; po): 1.0 h
AUC (0.96) for H-3 relative to C-14 (times higher) [10]: 10-15 times
concentrations in the hypophysis relative to plasma and brain tissues [10]: at least two times higher
entry into brain tissues [10]: intact molecules entered brain tissues from the circulation
ratio of AUC of H-3-labelled compound over C-14 [10]: 50-60
time of peak characteristic of enterohepatic cycle [10]: 12 h
time of peak concentrations after the final treatment [10]: 0.5 h

Structure (SMILES): Cc1nc2sccn2c(=O)c1CCN1CCC(=C(c2ccc(F)cc2)c2ccc(F)cc2)CC1 [ritanserin]
antidepressant-like effects of memantine (immobility time) [11]: reverse antidepressant-like effects of an effective dose of memantine
